Data taken from patent US9822069B2, “Urea derivative or pharmacologically acceptable salt thereof” (KYORIN PHARMACEUTICAL CO. LTD., priority 2013, dated 2017).

Legend:
[1] = target: T1, human FPRL1 (Homo sapiens, UniProt P25090); assay: Measurement test of agonist activity on human FPRL1 (test of calcium mobilization in cell, HEK293 with human FPRL1 and Gα15 expression vectors); assay type: cell-based; conditions: calcium mobilization in HEK293 cells with human FPRL1 and Gα15 expression vectors
T1 construct: expressed in transfected cells; host or cells: HEK293 (JCRB9068, NIBIO), transient transfection with pCMV-script vectors using Lipofectamine 2000
T1 sequence (P25090 1-351): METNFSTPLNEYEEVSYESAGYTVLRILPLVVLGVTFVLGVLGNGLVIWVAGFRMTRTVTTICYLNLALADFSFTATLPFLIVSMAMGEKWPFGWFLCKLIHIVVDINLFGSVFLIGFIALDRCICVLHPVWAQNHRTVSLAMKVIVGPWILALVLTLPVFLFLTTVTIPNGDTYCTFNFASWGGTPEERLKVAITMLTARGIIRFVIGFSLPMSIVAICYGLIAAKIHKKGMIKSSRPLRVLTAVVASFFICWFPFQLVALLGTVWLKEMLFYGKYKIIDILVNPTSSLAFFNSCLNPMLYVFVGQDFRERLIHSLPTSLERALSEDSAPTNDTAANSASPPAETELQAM
In short: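 HEK293 transiently co-transfected with human FPRL1 and Gα15, plated 24 h before assay, loaded with Fluo-4 NW dye plus probenecid. Compounds in eight 10-fold dilutions (DMSO stocks 10^−2 to 10^−9 M, then diluted 100-fold in assay buffer); calcium mobilization read on Flexstation for EC50.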

[2] = tested on: mouse (BALB/c, male); assay: Effect of lipopolysaccharide induction on neutrophilic infiltration in mouse lung; assay type: in vivo; conditions: neutrophil infiltration in BAL fluid, LPS-exposed BALB/c mouse, oral; for inhibition in vivo at 1 mg/kg / inhibition in vivo at 3 mg/kg: 5 h, read-out: SUPPRESSION RATIO
Method: Effect of Lipopolysaccharide Induction on Neutrophilic Infiltration in Mouse Lung A compound to be tested was orally administrated to a mouse (BALB/c, male), and after 30 minutes, the mouse was placed in a plastic container. Lipopolysaccharide (0.3 mg/mL) dissolved in physiological saline was aerosolized with an ultrasonic wave nebulizer (NE-U17, OMRON Corporation), and exposed to the mouse for 10 minutes. After 5 hours, the anesthetized mouse was sacrificed by exsanguination. A cannula was inserted in the respiratory tract and bronchoalveolar lavage (BAL) with 1 mL of 0.85% NaCl liquid containing 0.4% sodium citrate was carried out. This operation was repeated 3 times, to obtain a BAL fluid. The BAL fluid was centrifuged at 4° C. and ×200 g for 5 minutes, and the pellet was suspended in a physiological saline containing 0.1% BSA. The number of white blood cells was counted using Turks solution with a microscope, and the total white blood cell count was calculated. The white blood cells were fixed on a glass slide using Cytospin 3 (Thermo BioAnalysis Japan K. K.). The cells were stained with Diff-Quik (SYSMEX INTERNATIONAL REAGENTS CO., LTD.), and the number thereof was counted with a microscope, and the neutrophil ratio was calculated. The neutrophil ratio was multiplied by the total white blood cell count to calculate the total neutrophil count. An effect of the compound to be tested represents a percentage (%) of suppression ratio relative to the neutrophil count in a control.

Structure (SMILES)	EC50 [1] [nM]	inhibition in vivo at 1 mg/kg ([2]; dose 1 mg/kg) [%]	inhibition in vivo at 3 mg/kg ([2]; dose 3 mg/kg) [%]	SUPPRESSION RATIO (%) ([2]; dose 3 mg/kg)	SUPPRESSION RATIO (%) ([2]; dose 1 mg/kg)
COc1ccc([C@@H]2CNC(=O)C2NC(=O)Nc2ccc(F)cc2)cc1 (mixture of isomers) [Example 1-54, (±)-trans-1-(4-fluorophenyl)-3-[4-(4-methoxyphenyl)-2-oxopyrrolidin-3-yl]urea]	0.11		98.6		
COc1ccc([C@@H]2CN(C)C(=O)C2NC(=O)Nc2ccc(Cl)cc2)cc1 (mixture of isomers) [Example 1-55, (±)-trans-1-(4-chlorophenyl)-3-[4-(4-methoxyphenyl)-1-methyl-2-oxopyrrolidin-3-yl]urea]	1.02		83.7		
COc1ccc([C@@H]2CN(C)C(=O)[C@H]2NC(=O)Nc2ccc(F)cc2)cc1 (relative stereo) [EXAMPLE 1-7, 1-(4-fluorophenyl)-3-[(3S*,4R*)-4-(4-methoxyphenyl)-1-methyl-2-oxopyrrolidin-3-yl]urea]	0.22	96.9			
N#Cc1ccc(NC(=O)N[C@@H]2C(=O)NC[C@H]2c2cc3c(cc2F)OCC3)cc1 (relative stereo) [Example 1-84, (−)-1-(4-cyanophenyl)-3-[(3S*,4R*)-4-(6-fluoro-2,3-dihydrobenzofuran-5-yl)-2-oxopyrrolidin-3-yl]urea]	1.92				99.2
COc1cc(F)c([C@@H]2CNC(=O)[C@H]2NC(=O)Nc2ccccc2)c(F)c1 (relative stereo) [Example 7-2, (−)-1-[(3S*,4R*)-4-(2,6-difluoro-4-methoxyphenyl)-2-oxopyrrolidin-3-yl]-3-phenylurea]	0.45				87.7
CCN1C[C@@H](c2ccc(OC)cc2)[C@H](NC(=O)Nc2ccc(F)cc2)C1=O (relative stereo) [Example 12-1, (−)-1-[(3S*,4R*)-1-Ethyl-4-(4-methoxyphenyl)-2-oxopyrrolidin-3-yl]-3-(4-fluorophenyl) urea]	0.13		97.4		
COc1ccc([C@@H]2CNC(=O)[C@H]2NC(=O)Nc2ccc(F)cc2)cc1 (single isomer, unassigned) [EXAMPLE 1-1, (−)-1-(4-Fluorophenyl)-3-[(3S*,4R*)-4-(4-methoxyphenyl)-2-oxopyrrolidin-3-yl]urea]	0.09	95.1			
O=C(Nc1ccc(F)cc1)N[C@@H]1C(=O)NC[C@H]1c1cc2c(cc1F)OCC2 (single isomer, unassigned) [EXAMPLE 1-16, (−)-1-[(3S*,4R*)-4-(6-fluoro-2,3-dihydrobenzofuran-5-yl)-2-oxopyrrolidin-3-yl]-3-(4-fluorophenyl)urea]	0.24	95.8			
COc1ccc([C@@H]2CN(C(C)C(=O)O)C(=O)[C@H]2NC(=O)Nc2ccc(F)cc2)cc1 (single isomer, unassigned; isomer b) [Example 20-1, (−)-2-{(3S*,4R*)-3-[3-(4-Fluorophenyl)ureido]-4-(4-methoxyphenyl)-2-oxopyrrolidin-1-yl}propionic acid (isomer B)]	0.47				
CNC(=O)C(C)N1C[C@@H](c2ccc(OC)cc2)[C@H](NC(=O)Nc2ccc(F)cc2)C1=O (single isomer, unassigned; isomer b) [Example 21-1, (−)-2-{(3S*,4R*)-3-[3-(4-Fluorophenyl)ureido]-4-(4-methoxyphenyl)-2-oxopyrrolidin-1-yl}-N-methylpropionamide (isomer B)]	0.04				
COc1ccc(C2CN(CCO)C(=O)C2NC(=O)Nc2ccc(F)cc2)cc1 (stereo not drawn) [Example 12-15, (+)-1-(4-fluorophenyl)-3-[1-(2-hydroxyethyl)-4-(4-methoxyphenyl)-2-oxopyrrolidin-3-yl]urea]	0.43				

Continued, in another order:

EC50 [1] [nM]	Structure (SMILES)	inhibition in vivo at 1 mg/kg ([2]; dose 1 mg/kg) [%]	inhibition in vivo at 3 mg/kg ([2]; dose 3 mg/kg) [%]	SUPPRESSION RATIO (%) ([2]; dose 3 mg/kg)	SUPPRESSION RATIO (%) ([2]; dose 1 mg/kg)
0.18	COc1ccc([C@@H]2CNC(=O)C2NC(=O)Nc2ccc(Cl)cc2)cc1 (mixture of isomers) [Example 1-53, (±)-trans-1-(4-chlorophenyl)-3-[4-(4-methoxyphenyl)-2-oxopyrrolidin-3-yl]urea]	78.9			
2.67	COc1cc(F)c([C@@H]2CNC(=O)[C@H]2NC(=O)Nc2ccc(Cl)nc2)c(F)c1 (relative stereo) [Example 1-31, (−)-1-(6-chloropyridin-3-yl)-3-[(3S*,4R*)-4-(2,6-difluoro-4-methoxyphenyl)-2-oxopyrrolidin-3-yl]urea]	69.7			
0.08	COc1cc(F)c([C@@H]2CNC(=O)[C@H]2NC(=O)Nc2ccc(C)c(O)c2)c(F)c1 (relative stereo) [Example 1-68, (−)-1-[(3S*,4R*)-4-(2,6-difluoro-4-methoxyphenyl)-2-oxopyrrolidin-3-yl]-3-(3-hydroxy-4-methyl)phenyl)urea]			85.6	
0.09	COc1cc(F)c([C@@H]2CNC(=O)[C@H]2NC(=O)Nc2ccc(F)c(O)c2)c(F)c1 (relative stereo) [Example 1-71, (−)-1-[(3S*,4R*)-4-(2,6-difluoro-4-methoxyphenyl)-2-oxopyrrolidin-3-yl]-3-(4-fluoro-3-hydroxyphenyl)urea]			79.7	
0.05	COc1cc(F)c([C@@H]2CNC(=O)[C@H]2NC(=O)Nc2ccc(Cl)c(O)c2)c(F)c1 (relative stereo) [Example 1-72, (−)-1-(4-chloro-3-hydroxyphenyl)-3-[(3S*,4R*)-4-(2,6-difluoro-4-methoxyphenyl)-2-oxopyrrolidin-3-yl]urea]			93.3	
0.86	COc1cc(F)c([C@@H]2CNC(=O)[C@H]2NC(=O)Nc2ccc(C)cc2)c(F)c1 (relative stereo) [Example 9-1, (−)-1-[(3S*,4R*)-4-(2,6-Difluoro-4-methoxyphenyl)-2-oxopyrrolidin-3-yl]-3-(p-tolyl)urea]			57.0	
0.09	COc1ccc([C@@H]2CNC(=O)[C@H]2NC(=O)Nc2ccc(Cl)cc2)cc1 (single isomer, unassigned) [EXAMPLE 1-2, (-)-1-(4-chlorophenyl)-3-[(3S*,4R*)-4-(4-methoxyphenyl)-2-oxopyrrolidin-3-yl]urea]	99.2			
0.45	COc1ccc([C@@H]2CNC(=O)[C@H]2NC(=O)Nc2ccc(F)cc2)c(F)c1 (single isomer, unassigned) [EXAMPLE 1-9, (−)-1-[(3S*,4R*)-4-(2-fluoro-4-methoxyphenyl)-2-oxopyrrolidin-3-yl]-3-(4-fluorophenyl)urea]		98.5		
0.06	COc1cc(F)c([C@@H]2CNC(=O)[C@H]2NC(=O)Nc2ccc(F)cc2)c(F)c1 (single isomer, unassigned) [EXAMPLE 1-12, (−)-1-[(3S*,4R*)-4-(2,6-difluoro-4-methoxyphenyl)-2-oxopyrrolidin-3-yl]-3-(4-fluorophenyl)urea]	96.8			
0.36	COc1cnc([C@@H]2CNC(=O)[C@H]2NC(=O)Nc2ccc(F)cc2)c(F)c1 (single isomer, unassigned) [EXAMPLE 1-18, (−)-1-[(3S*,4R*)-4-(3-fluoro-5-methoxypyridin-2-yl)-2-oxopyrrolidin-3-yl]-3-(4-fluorophenyl)urea]	98.3			
0.11	COc1cc(F)c([C@@H]2CNC(=O)[C@H]2NC(=O)Nc2ccc(Cl)cc2)c(F)c1 (single isomer, unassigned) [EXAMPLE 1-22, (−)-1-(4-chlorophenyl)-3-[(3S*,4R*)-4-(2,6-difluoro-4-methoxyphenyl)-2-oxopyrrolidin-3-yl]urea]	93.1			
2.86	CCOC(=O)CC/N=C1\NC[C@@H](c2c(F)cc(OC)cc2F)[C@@H]1NC(=O)Nc1ccc(F)cc1 [EXAMPLE 32-20, 3-((Z)-{(3S,4R)-4-(2,6-difluoro-4-methoxyphenyl)-3-[3-(4-fluorophenyl)ureido]pyrrolidin-2-ylidene}amino) propanoic acid ethyl ester]				
1.12	COc1ccc(C2CNC(=O)C2NC(=O)Nc2ccc(F)cc2)cc1 (stereo not drawn) [Example 12-13, (+)-1-(4-fluorophenyl)-3-[4-(4-methoxyphenyl)-2-oxopyrrolidin-3-yl]urea]				
